A word on the Kd: it is a measure of binding affinity in units of concentration. A high value points to weaker binding.

Drawing on publication PMC11211567, “Tetrandrine inhibits aldosterone synthesis by covalently targeting CYP11A1 to attenuate hypertension” (Frontiers in Pharmacology, 2024), this text covers Kd for one compound.

This test concerns the target T1, CYP11A1 (Homo sapiens, UniProt P05108).
T1 construct: recombinant WT human CYP11A1, pET-28a(+), C-terminal His6, coexpressed with GroEL/ES in E. coli, purified; MST
T1 sequence (P05108 40-521): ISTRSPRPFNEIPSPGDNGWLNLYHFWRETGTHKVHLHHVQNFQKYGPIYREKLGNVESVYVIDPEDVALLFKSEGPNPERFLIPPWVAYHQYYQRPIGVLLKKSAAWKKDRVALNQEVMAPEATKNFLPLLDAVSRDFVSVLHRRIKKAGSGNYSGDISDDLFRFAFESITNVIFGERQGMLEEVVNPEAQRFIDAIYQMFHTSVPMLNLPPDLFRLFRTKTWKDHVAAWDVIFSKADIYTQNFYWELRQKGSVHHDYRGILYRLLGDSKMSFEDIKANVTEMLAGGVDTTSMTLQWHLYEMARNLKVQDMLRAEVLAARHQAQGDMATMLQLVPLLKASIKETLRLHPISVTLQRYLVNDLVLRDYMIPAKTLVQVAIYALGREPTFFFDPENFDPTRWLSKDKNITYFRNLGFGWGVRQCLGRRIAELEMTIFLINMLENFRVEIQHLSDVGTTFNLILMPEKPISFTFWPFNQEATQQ
The test is described as follows: MST with purified protein; in-gel competition with Tet probe; CO difference spectra; cell activity IC50 […]. The test is classed as binding.

`COc1ccc2cc1Oc1ccc(cc1)C[C@H]1c3cc(c(OC)cc3CCN1C)Oc1c(OC)c(OC)cc3c1[C@H](C2)N(C)CC3` [Tet, Tetrandrine] registered a Kd of 12.5 µM.
